Molecular target: Cytidine deaminase (Mus musculus) (UniProt P56389)
Assay: Inhibition of cytidine deaminase enzyme obtained from mouse kidney

Sequence of Cytidine deaminase (Mus musculus) (P56389 whole entry, looked up): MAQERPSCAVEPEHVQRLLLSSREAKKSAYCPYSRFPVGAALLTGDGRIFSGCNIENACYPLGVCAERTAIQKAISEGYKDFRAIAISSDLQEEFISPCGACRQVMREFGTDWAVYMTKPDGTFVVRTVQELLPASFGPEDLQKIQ

A Ki of 330 µM was found for `[O-][S+]1C=CN(C2O[C@H](CO)[C@@H](O)[C@H]2O)C(O)=C1` (stereo partly specified) in this work.
